Test results as given in PMC8508960, “Ruthenium Half-Sandwich Type Complexes with Bidentate Monosaccharide Ligands Show Antineoplastic Activity in Ovarian Cancer Cell Models through Reactive Oxygen Species Production” (International Journal of Molecular Sciences, 2021).
Each block holds one molecule with its values, some of them ahead of it.

What was measured:
[1] = Aqueous stability over time by NMR; type: physicochemical; conditions: aqueous medium, 2 day old equilibrated sample, KCl added
Excerpt: The aqueous stability of the complexes was also studied over time. The small shifts of signals attributable to the structural change of the complex can be observed; however, by adding KCl to the 2 day old equilibrated sample, the original signals could be recovered.

[2] = tested on: human primary skin fibroblasts; assay: MTT reduction assay (4 h, rapid toxicity) on primary fibroblasts; type: cell-based
Procedure: (§1) Cells were cultured under standard cell culture conditions, 37 °C, 5% CO2, humidified atmosphere. A2780 cells were cultured in RMPI 1640 medium supplemented with 10% fetal calf serum, 2 mM glutamine, and 1% penicillin–streptomycin (Sigma-Aldrich). ID8 cells were cultured in high-glucose DMEM (4.5 g/L glucose) supplemented with 4% fetal calf serum, 2 mM glutamine, 1% penicillin–streptomycin (Sigma-Aldrich), and 1% ITS supplement (Sigma-Aldrich I3146). U251 cells were maintained in MEM (Sigma-Aldrich), 10% fetal bovine serum (Sigma-Aldrich), 1% penicillin/streptomycin (Invitrogene), and 2 mM glutamine. MCF7 cells were maintained in MEM (Sigma-Aldrich), 10% fetal bovine serum (Sigma-Aldrich), 1% penicillin/streptomycin (Invitrogen, Waltham, MA, USA), and 2 mM glutamine. Capan2 cells were maintained in MEM (Sigma-Aldrich), 10% fetal bovine serum (Sigma-Aldrich), 1% penicillin/streptomycin (Invitrogen), and 2 mM glutamine. Human primary dermal fibroblasts were cultured in low-glucose DMEM (1 g/L glucose) supplemented with 20% fetal calf serum, 2 mM glutamine, and 1% penicillin–streptomycin (Sigma-Aldrich).
(§2) The MTT reduction assay assesses the activity of mitochondrial complex I, and it was used to assess rapid toxicity. The MTT reduction assay was performed similarly to [67]. Cells were seeded in 96-well plates. The next day, cells were treated with the compounds for 4 h in the concentrations indicated in a cell incubator. At the end of treatment, MTT was added in 0.5 mg/mL final concentration, and cells were incubated at 37 °C in a cell incubator. Then, culture media was removed, the reduced MTT dye was resolved in dimethyl sulfoxide (DMSO), and plates were measured in a plate photometer (Thermo Scientific Multiscan GO spectrophotometer, Waltham, MA, USA) at 540 nm. On each plate, wells were designed to contain untreated/vehicle-treated cells. In calculations, the readings for these wells were considered as 1, and all readings were expressed relative to these values.

[3] = tested on: Capan2 (pancreatic adenocarcinoma); assay: SRB proliferation assay (48 h) on Capan2 cells; type: cell-based; conditions: nonlinear regression
Procedure: as §1
(§3) The SRB accumulation assay assesses protein content in a sample, and it was used to assess cell proliferation. The SRB accumulation assay was performed similarly to [68]. Cells were seeded in 96-well plates. The next day, cells were treated with the compounds for 48 h in the concentrations indicated in a cell incubator. At the end of treatment, cells were fixed with 10% trichloroacetic acid (TCA). Fixed cells were stained with SRB (0.4% m/v dissolved in 1% acetic acid) for 60 min. Fixed cells were washed in 1% acetic acid three times; acetic acid was removed, and cells were left to dry. Protein-bound SRB was released by adding 100 µL of 10 mM Tris base. Plates were measured in a plate photometer (Thermo Scientific Multiscan GO spectrophotometer, Waltham, MA, USA) at 540 nm. On each plate, wells were designed to contain untreated cells. In calculations, the readings for these wells were considered as 1, and all readings were expressed relative to these values.
(§4) Statistical analysis was performed using Graphpad Prism version 8.0.1. Values were tested for normal distribution using the D’Agostino and Pearson normality test. When necessary, values were log-normalized or were normalized using the Box–Cox normalization method, as indicated in the figure captions. Nonlinear regression was performed using the built-in “[Inhibitor] vs. response—variable slope (four parameters), least square fit” utility of Graphpad that yielded IC50 and Hill slope values.

A2780 cells [4] = assay: Western blotting of 4-hydroxy-nonenal (4HNE), oxidative stress marker; type: cell-based, human; conditions: concentration corresponding to IC50, 48 h
Procedure: The preparation of protein extracts, the separation of protein extracts in SDS-polyacrylamide gel electrophoresis, and the subsequent Western blotting were performed as described in [70] using the antibodies in Table 4. Enhanced chemiluminescence was developed using ChemiDoc Imager, (Bio-Rad, Hercules, CA, USA). Densitometry was performed using Image Lab Touch Software, Bio-Rad, Hercules, CA, USA).

[5] = tested on: U251 cells (glioblastoma model); assay: SRB proliferation assay (48 h) on U251 cells; type: cell-based; conditions: nonlinear regression
Procedure: as §1, §3, §4

[6] = tested on: human primary skin fibroblasts; assay: SRB proliferation assay (48 h) on primary fibroblasts; type: cell-based; conditions: primary human fibroblasts
Procedure: as §1, §3, §4

[7] = Determination of the distribution coefficients (logD), n-octanol/PBS; type: physicochemical; conditions: n-octanol / PBS pH = 7.40
Procedure: Prior to the experiments, n-octanol was saturated with aqueous PBS solution (pH = 7.40) and vice versa. The corresponding complex (approximately 0.2–0.3 mg) was dissolved in a mixture of 2.50 mL of pre-saturated n-octanol and 2.50 mL of pre-saturated PBS buffer, and the mixture was vigorously stirred for 3 days. According to the NMR stability measurements, this time was necessary to reach equilibrium between the various ionic complex species. Due to the lipophilic/hydrophilic character of the complexes, those with benzoyl protection or the non-sugar derivative could mostly be found in the n-octanol, while the acetyl and non-protected complexes could be found in the aqueous PBS phase. The appropriate separated solution was centrifuged (ScanSpeed 406G instrument, 4000 RPM for 5 min), and the absorption of the “stock solution” was measured (VWR UV-1600PC Spectrophotometer, 270–420 nm). Then 2.00 mL of stock solution was stirred vigorously with 16.00 mL of pre-saturated, clean n-octanol or PBS solution. After 1 day, the phases were separated and centrifuged, and the absorption of the solution was measured again. From the absorption difference of the stock solutions, the distribution coefficient (D) was calculated according to the previously described formulae [66].

[8] = tested on: MCF7 cells (breast cancer); assay: SRB proliferation assay (48 h) on MCF7 cells; type: cell-based; conditions: nonlinear regression
Procedure: as §1, §3, §4

ID8 cells [9] = assay: MTT reduction assay (4 h, rapid toxicity) on ID8 cells; type: cell-based; conditions: above 10 µM concentration
Procedure: as §1, §2

ID8 cells [10] = assay: SRB proliferation assay (48 h) on ID8 cells; type: cell-based
Procedure: as §1, §3, §4

[11] = tested on: A2780 human ovarian carcinoma cells; assay: SRB proliferation assay (48 h) on A2780 cells; type: cell-based
Procedure: as §1, §3, §4

[12] = tested on: A2780 human ovarian carcinoma cells; assay: MTT reduction assay (4 h, rapid toxicity) on A2780 cells; type: cell-based
Procedure: as §1, §2

A2780 cells [13] = assay: SRB assay on A2780 cells with or without 3 µM rucaparib; type: cell-based, human; conditions: 48 h, vehicle (no rucaparib)
Procedure: as §3, §4

A2780 cells [14] = assay: SRB assay on A2780 cells with antioxidant cotreatment (GSH, NAC, MitoTEMPO, vitamin E, Trolox); type: cell-based, human; conditions: 48 h
Procedure: as §3

A2780 cells [15] = assay: Annexin V-FITC, PI double staining (flow cytometry); type: cell-based, human; conditions: concentration corresponding to IC50, 2 h, 4 h or 48 h
Procedure: Annexin V–PI double staining was applied to assess apoptotic and necrotic cell death similar to [37, 38, 69]. A2780 cells were treated with the indicated compounds at the concentration corresponding to their IC50 value for 2, 4, and 48 h. The 4 and 48 h time points correspond to the time points for the MTT and SRB assays, while the 2 h time point reflects the optimum time point for the detection of apoptotic or necrotic cell death. Quadrants were set on the basis of the FITC and PI values observed for the vehicle-treated cells.

[16] = SRB, nonlinear regression, N/A = could not be calculated/had no effect

SMILES: Cc1ccc(C(C)C)cc1.F[P-](F)(F)(F)(F)F.OCC1OC(n2cc(-c3ccccn3)nn2)C(O)C(O)C1O.[Cl][Ru+] (mixture of isomers) [Ru-3a]
- aqueous stability over time (NMR) [1]: only the exchange of the coordinating chloride ion by a water molecule occurred in a reversible manner

- IC50 [3]: 3.82 µM
- IC50 [5]: 4.49 µM
- logD [7]: 2.44
- IC50 [8]: 3.75 µM
- IC50 [11, 16]: 4.27 µM
- IC50 (A2780 cells [13]): 4.17 µM
SMILES: Cc1ccc(C(C)C)cc1.F[P-](F)(F)(F)(F)F.O=C(OCC1OC(c2nnc(-c3ccccn3)o2)C(OC(=O)c2ccccc2)C(OC(=O)c2ccccc2)C1OC(=O)c1ccccc1)c1ccccc1.[Cl][Ru+] (mixture of isomers) [Ru-8]
- effect in short-term MTT assay, rapid toxicity (in words) [2]: no effect
- Capan2 Hill Slope [3]: 1.66
- expression of oxidative stress marker 4-hydroxy-nonenal (4HNE) (A2780 cells [4]): increase in the expression
- U251 Hill Slope [5]: 2.50
- effect in long-term SRB assay (in words) [6]: no effect
- MCF7 Hill Slope [8]: 2.06
- effect on MTT signal above 10 µM (ID8 cells [9]): reduced the MTT signal
- cytostatic activity in long-term SRB assay (in words) (ID8 cells [10]; ID8 cells): cytostatic
- IC50 (ID8 cells [10]; [16]): 7.94 µM
- ID8 Hill Slope (ID8 cells [10]; [16]): 3.31
- cytostatic activity in long-term SRB assay (in words) ([11]; A2780 cells, 100–0.0017 µM): cytostatic properties
- Hill slope (span over cell lines) ([11]; SRB curves, A2780 and ID8 cells): 2–3
- A2780 Hill Slope [11, 16]: 3.50
- effect in short-term MTT assay, rapid toxicity (in words) [12]: cytostatic properties
- effect on MTT signal above 10 µM ([12]; above 10 µM concentration): reduced the MTT signal
- effect of GSH and NAC cotreatment on the cytostatic effects of the complex (A2780 cells [14]): attenuated the cytostatic effects
- effect of MitoTEMPO on the cytostatic effects of the complex (A2780 cells [14]): did not modulate the effects
- proportions of PI-positive, annexin V-positive and double-positive cells (A2780 cells [15]): did not largely increase
